# Results reported in patent US20170251662A1, “ALTERNATIVE DEVICE AND METHODS FOR APPLICATION OF 1-METHYLCYCLOPROPENE TO FRUIT” (AGROFRESH INC., priority 2016, published 2017).
# How the values were obtained:
# Assay type in all cases: in vivo
# [1] = test system: Bartlett pears; experiment: Liquid 1-MCP drench treatment on pears; design: key to Firmness, statistical significance between control and treated bins of pears by layers / Ethylene Content, statistical significance between control and treated bins of pears by layers / Skin Color, statistical significance between control and treated bins of pears by layers: Lx: layers that contained fruit that were not statistically significantly different from control; All: fruit tested in all layers was statistically significantly different from control; None: no layers were identified that had statistical significance from control
# Method: Bins of freshly harvested Bartlett pears were sprayed with 0 gal (control), 1.0 gal, 2.0 gal, or 3.0 gal of Harvista AFxRD038 formulation. The AFxRD038 liquid 1-methylcyclopropene (1-MCP) formulation was made of 3 gal of water, 36 g of AFxRD038, 113 ml of HiSupreme Spray Oil, and 5.63 ml of Silwett L-77 surfactant.
# A CO2 backpack sprayer was used to apply the different volumes of 1-MCP treatment within an initial time period of a few days (e.g., about 2-3 days). The formulation was applied to bins containing a total of approximately 900 lbs of pears. Each bin comprised 7-9 layers depending on the size of the pears, with layer 1 being the top layer and layers 7-9 being the bottom layer. A control bin having 9 layers of pears was not sprayed with 1-MCP treatment.
# The bins of pears were allowed to air dry outside, and were then stored in regular cold air (i.e., about 4° C.) for a second time period of about two days. The fruit was then moved to a controlled atmosphere storage having a temperature of 31° F. for a third time period of about 45 days. Upon removal of the fruit from storage in the bins, the fruit was then placed in a warm room having a temperature of about 68° F. for a fourth time period of about six days.
# On the sixth day of the fourth time period of warm room exposure, each individual bin of fruit was sampled in a uniform fashion. Uniform sampling was performed by removing about 250 pears from the top of each bin, layer-by-layer. Each layer of about 250 fruit was stored in plastic bins for further analysis during a fifth time period. Day 6 evaluation occurred on the same day the layers were removed from the bin. Four days later (Day 10), another series of fruit layers were analyzed. Four more days later (Day 14), the last set of fruit from the bins were analyzed.
# On days 6, 10, and 14, a subset of fruit from each layer of each bin was analyzed for firmness, ethylene content, and fruit skin color. Quality measurements were taken on an individual layer of fruit within each treated bin to establish the effectiveness and consistency of the treatments from top to bottom of each fruit bin (see FIGS. 3-5). For example, firmness of the pears was measured by peeling the pears, and measuring the middle pulp with an 8 mm tip.
# [2] = test system: Red Delicious apples; experiment: Liquid 1-MCP drench treatment on apples; design: key to Ethylene Content, statistical significance between control and treated bins of apples by layers: Lx: layers that contained fruit that were not statistically significantly different from control; All: fruit tested in all layers was statistically significantly different from control; None: no layers were identified that had statistical significance from control; conditions: for Firmness of apples compared with unsprayed control apples: most apples
# Method: This experiment was conducted to test the effect of 1-MCP treatment on Red Delicious apples. This experiment was performed exactly as detailed above in Example 1 for Bartlett pears, but with a few noted exceptions described here. Specifically, Red Delicious apples were treated with a 1-MCP treatment comprising 31 g of AFxRD038. The apples were treated with 0.5 gal, 1.0 gal, and 2.0 gal volumes of the 1-MCP treatment, which were applied to bins of apples comprised in 9-10 layers depending on the size of the apples. A control bin having 10 layers of apples was not sprayed with 1-MCP treatment. The apples were stored for a third time period at room temperature for 33 days. The apples were analyzed for firmness and ethylene content at warm day 7 and 14 of the fifth time period.
# [3] = test system: Cantaloupe melons; experiment: Comparative liquid 1-MCP spray treatment on melons, stored about 15 days
# Method: This experiment was conducted to test the effect of 1-MCP spray treatment on Cantaloupe melons as compared to SmartFresh treatment. Bins containing 9 kilograms each of freshly harvested Cantaloupe melons were sprayed four times using a dual-liquid sprayer comprising the Harvista AFx701 formulation (see FIG. 10). Each spray of the AFx701 liquid 1-methylcyclopropene (1-MCP) formulation comprised 83.5 mg of AFx701 and 608 mg of water. Thus, a total amount of 1.67 mg of 1-MCP active ingredient and 2.43 g of water was applied to each bin of melons, which equates to 0.185 mg of 1-MCP per kg of melons. The 1-MCP treatment formulations were prepared and applied to […] using a sprayer, and compared to apples that had been treated with SmartFresh or no 1-MCP at all (control).
# (§1) The bins of melons were allowed to air dry outside, and were then stored in regular cold air (i.e., about 36° F.) for a second time period of about 15 days. The melons were then moved to a regular atmosphere storage having a temperature of about 70° F. for a third time period of about 2, 4, or 6 more days. Upon removal of the fruit from storage in the bins, the fruit were then analyzed for firmness. Firmness of the melons was measured by cutting the melons in half, and measuring the middle pulp with an 8 mm tip.
# Day 15 evaluation occurred on the same day the fruit were removed from storage in the bin. Two days later (Day 15+2), another series of fruit were analyzed. Two more days later (Day 15+4), an additional set of fruit were removed and analyzed. Finally, the last set of fruit from the bins was analyzed two days later (Day 15+6). Quality measurements were taken on individual melons randomly selected from different treated bins and different positions within each treated bin (e.g., the edge and/or the center of the bin) to establish the effectiveness and consistency of the treatments (see FIG. 11).
# [4] = test system: Cantaloupe melons; experiment: Comparative liquid 1-MCP spray treatment on melons, stored about 9 days
# Method: as §1, with “This experiment was conducted to test the effect of 1-MCP spray treatment on Cantaloupe melons as compared to SmartFresh treatment. This experiment was performed exactly as detailed above in Example 1 for Bartlett pears, but with a few noted exceptions described here. The bins” for “The bins”, “of about 9 days. The” for “of about 15 days. The”
# [5] = test system: Golden Delicious apples; experiment: Comparative analysis of 1-MCP treatments of apples applied with the wand device; conditions: for Fruit firmness of apples relative to SmartFresh and control apples: 65 days at about 1° C. + 7 days room temperature
# Method: This experiment was conducted to test the effect of different application methods of 1-MCP treatment (i.e., Harvista AFx701) on Golden Delicious apples in bins. Apples were treated with two different formulations of the 1-MCP treatment, including a formulation comprising 1) 20 grams of 1-MCP and 2 liters of water, which was applied in 10 seconds and 2) 60 grams of 1-MCP and 6 liters of water, which was applied in 30 seconds. The 1-MCP treatment formulations were prepared and applied to apples using the wand device, and compared to apples that had been treated with SmartFresh or no 1-MCP at all (control).
# Apples were stored for 65 days in cold air at about 1° C. temperature, prior to being stressed for 7 days at room temperature. Replicates of 25 fruit were sampled from each layer of each fruit bin to analyze fruit firmness (in pounds, lbs) and internal ethylene concentration (ppm). Data were analyzed on a whole bin basis using all replicates from each layer.
# [6] = spray, 9 days cold storage, all days
# [7] = Treatment 2: 60 grams of 1-MCP and 6 liters of water, 30 seconds, wand device
smiles,measurement,setting,value
"CC1=CC1 [1-MCP, 1-Methylcyclopropene]",Firmness of pears compared with unsprayed control fruit,"[1]; 1 gal, 2 gal or 3 gal, layers 1-9, warm days 6, 10 and 14",significantly better firmness
same,"Firmness, statistical significance between control and treated bins of pears by layers","[1]; WRD 6, 1 Gal",All
same,"Skin Color, statistical significance between control and treated bins of pears by layers","[1]; WRD 6, 1 Gal",All
same,"Firmness, statistical significance between control and treated bins of pears by layers","[1]; WRD 6, 2 Gal",All
same,"Skin Color, statistical significance between control and treated bins of pears by layers","[1]; WRD 6, 2 Gal",All
same,"Firmness, statistical significance between control and treated bins of pears by layers","[1]; WRD 6, 3 Gal",All
same,"Skin Color, statistical significance between control and treated bins of pears by layers","[1]; WRD 6, 3 Gal",All
same,"Ethylene Content, statistical significance between control and treated bins of pears by layers","[1]; WRD 10, 1 Gal",All
same,"Firmness, statistical significance between control and treated bins of pears by layers","[1]; WRD 10, 1 Gal",All
same,"Skin Color, statistical significance between control and treated bins of pears by layers","[1]; WRD 10, 1 Gal",All
same,"Firmness, statistical significance between control and treated bins of pears by layers","[1]; WRD 10, 2 Gal",All
same,"Skin Color, statistical significance between control and treated bins of pears by layers","[1]; WRD 10, 2 Gal",All
same,"Firmness, statistical significance between control and treated bins of pears by layers","[1]; WRD 10, 3 Gal",All
same,"Skin Color, statistical significance between control and treated bins of pears by layers","[1]; WRD 10, 3 Gal",All
same,"Firmness, statistical significance between control and treated bins of pears by layers","[1]; WRD 14, 1 Gal",All
same,"Skin Color, statistical significance between control and treated bins of pears by layers","[1]; WRD 14, 1 Gal",None
same,"Firmness, statistical significance between control and treated bins of pears by layers","[1]; WRD 14, 2 Gal",All
same,"Skin Color, statistical significance between control and treated bins of pears by layers","[1]; WRD 14, 2 Gal",None
same,"Firmness, statistical significance between control and treated bins of pears by layers","[1]; WRD 14, 3 Gal",All
same,"Skin Color, statistical significance between control and treated bins of pears by layers","[1]; WRD 14, 3 Gal",None
same,Control and/or inhibition of fruit ripening in pears,[1]; as little as 1 gal of 1-MCP treatment,effective to control and/or inhibit fruit ripening in pears
same,Fruit color of pears compared with unsprayed control fruit,"[1]; layers 1-9, days 6 and 10",significantly less fruit color
same,Ethylene concentration of pears compared with unsprayed control fruit,"[1]; layers 1-9, warm days 6, 10 and 14",significantly lower ethylene concentrations
same,Fruit skin color of pears compared with control,[1]; warm day 14,none of the layers showed a significant difference
same,"Ethylene Content, statistical significance between control and treated bins of apples by layers","[2]; WRD 7, 0.5 Gal",All
same,"Ethylene Content, statistical significance between control and treated bins of apples by layers","[2]; WRD 7, 1 Gal",All
same,"Ethylene Content, statistical significance between control and treated bins of apples by layers","[2]; WRD 7, 2 Gal",All
same,"Ethylene Content, statistical significance between control and treated bins of apples by layers","[2]; WRD 14, 2 Gal",All
same,Control and/or inhibition of fruit ripening in apples,[2]; as little as 0.5 gal of 1-MCP treatment,effective to control and/or inhibit fruit ripening in apples
same,Firmness of apples compared with unsprayed control apples,"[2]; day 14, except layers 2, 5, 8 and 10",significantly better firmness
same,Ethylene concentration of apples compared with unsprayed control apples,"[2]; warm day 7, layers 1-10",significantly lower ethylene concentrations
same,Firmness of apples compared with unsprayed control apples,"[2]; warm day 7, except layers 5, 8 and 9",significantly better firmness
same,Control and/or inhibition of fruit ripening in melons,[3]; 15 days cold storage,effective to control and/or inhibit fruit ripening in melons
same,Firmness of melons compared with control fruit,"[3]; Day 15, 15+2, 15+4, 15+6 (all days)",significant differences from the control fruit
same,Firmness of melons compared with SmartFresh-treated melons,[3]; all days,relatively comparable to melons treated with SmartFresh
same,Firmness of melons compared with SmartFresh-treated melons,[4]; Day 9+4,even higher
same,Control and/or inhibition of fruit ripening in melons,"[4]; spray, 9 days cold storage",effective to control and/or inhibit fruit ripening in melons
same,Firmness of melons compared with SmartFresh-treated fruit,[4]; [6],statistically the same as SmartFresh treated fruit
same,Firmness of melons compared with control,[4]; [6],significant differences from the control
same,Control and/or inhibition of fruit ripening in apples,[5]; 1-MCP treatment applied with a wand device,effective to control and/or inhibit fruit ripening in apples
same,Fruit firmness of apples relative to SmartFresh and control apples,"[5]; Treatment 1: 20 grams of 1-MCP and 2 liters of water, 10 seconds, wand device",highest
same,Internal ethylene concentration of apples compared with Treatment 1 or control,[5]; [7],significantly less ethylene concentration
same,Fruit firmness of apples relative to SmartFresh and control apples,[5]; [7],highest
